Key:
Conditions in all cases: 48 h
P12-Ichikawa [1] = test: cell viability relative to DMSO control; higher = less cytotoxic
Method in brief: (§1)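 Leukemia cells (NOMO1 or SEM, 500 cells/well; P12-Ichikawa, 1000 cells/well) were seeded in 5 μl in 1536-well plates after at least four passages of adaptation to each medium. They received library compounds in DMSO by pin dosing, 11 threefold points from 47 μM to 0.79 nM. Luminescence with CellTiter-Glo One was read after 48 h at 37°C. Viability is stated per plate relative to DMSO wells, with cell-free wells as background.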

NOMO1 [2] = test: as above
Method in brief: as §1

SEM cells [3] = test: as above
Method in brief: as §1

P12-Ichikawa [4] = test: AUC of viability dose-response curve (% viability x log10 dose units); higher = less sensitive
Method in brief: (§2)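 Library compounds in DMSO were applied for 48 h at 37°C at 11 threefold doses (47 μM to 0.79 nM) to medium-adapted leukemia cells in 1536-well plates holding 500 or 1000 cells/well. Luminescence from CellTiter-Glo One was normalised plate by plate against DMSO and cell-free wells. Area under the curve came from trapezoidal integration of a log-logistic fit, after scaling curves that rose above full viability and discarding those that failed quality control. The fit had four parameters and used log10 doses.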

NOMO1 [5] = test: as above
Method in brief: as §2

SEM cells [6] = test: as above
Method in brief: as §2

CCN1CCCC1CNC(=O)c1cc([S+](N)(=O)[O-])ccc1OC (stereo not given)
cell viability [%]
Conditions	NOMO1 [2]	P12-Ichikawa [1]	SEM cells [3]
HPLM + 10% dialyzed FBS, 0.000781 µM	104	111	90
HPLM + 10% dialyzed FBS, 0.00234 µM	117	115	88.7
HPLM + 10% dialyzed FBS, 0.00702 µM	127	119	97.6
HPLM + 10% dialyzed FBS, 0.0211 µM	127	108	87.3
HPLM + 10% dialyzed FBS, 0.0632 µM	142	125	102
HPLM + 10% dialyzed FBS, 0.19 µM	128	121	90.1
HPLM + 10% dialyzed FBS, 0.569 µM	111	116	102
HPLM + 10% dialyzed FBS, 1.71 µM	117	118	107
HPLM + 10% dialyzed FBS, 5.12 µM	140	113	108
HPLM + 10% dialyzed FBS, 15.4 µM	121	120	69.1
HPLM + 10% dialyzed FBS, 46.1 µM	78	109	102
RPMI 5 mM glucose + 10% FBS, 0.000781 µM	120	–	96.8
RPMI 5 mM glucose + 10% FBS, 0.00234 µM	113	–	102
RPMI 5 mM glucose + 10% FBS, 0.00702 µM	102	–	112
RPMI 5 mM glucose + 10% FBS, 0.0211 µM	103	–	92.4
RPMI 5 mM glucose + 10% FBS, 0.0632 µM	123	–	105
RPMI 5 mM glucose + 10% FBS, 0.19 µM	106	–	111
RPMI 5 mM glucose + 10% FBS, 0.569 µM	118	–	106
RPMI 5 mM glucose + 10% FBS, 1.71 µM	120	–	112
RPMI 5 mM glucose + 10% FBS, 5.12 µM	119	–	102
RPMI 5 mM glucose + 10% FBS, 15.4 µM	117	–	66
RPMI 5 mM glucose + 10% FBS, 46.1 µM	105	–	97.8
RPMI 5 mM glucose + 10% dialyzed FBS, 0.000781 µM	111	107	102
RPMI 5 mM glucose + 10% dialyzed FBS, 0.00234 µM	126	117	91.6
RPMI 5 mM glucose + 10% dialyzed FBS, 0.00702 µM	106	121	110
RPMI 5 mM glucose + 10% dialyzed FBS, 0.0211 µM	125	117	113
RPMI 5 mM glucose + 10% dialyzed FBS, 0.0632 µM	115	126	118
RPMI 5 mM glucose + 10% dialyzed FBS, 0.19 µM	139	117	122
RPMI 5 mM glucose + 10% dialyzed FBS, 0.569 µM	131	124	107
RPMI 5 mM glucose + 10% dialyzed FBS, 1.71 µM	134	126	123
RPMI 5 mM glucose + 10% dialyzed FBS, 5.12 µM	122	124	133
RPMI 5 mM glucose + 10% dialyzed FBS, 15.4 µM	126	128	59.1
RPMI 5 mM glucose + 10% dialyzed FBS, 46.1 µM	129	117	121

AUC of viability dose-response curve
Conditions	NOMO1 [5]	P12-Ichikawa [4]	SEM cells [6]
HPLM + 10% dialyzed FBS	467	476	453
RPMI 5 mM glucose + 10% FBS	470	467	460
RPMI 5 mM glucose + 10% dialyzed FBS	455	469	470

CC(COc1ccccc1)N(CCCl)Cc1ccccc1 (stereo not given)
cell viability [%], SEM cells [3]
Conditions	HPLM + 10% dialyzed FBS	RPMI 5 mM glucose + 10% FBS
0.000781 µM	89.3	101
0.00234 µM	102	123
0.00702 µM	121	127
0.0211 µM	110	120
0.0632 µM	116	112
0.19 µM	115	135
0.569 µM	104	131
1.71 µM	110	128
5.12 µM	123	148
15.4 µM	119	147
46.1 µM	89.4	115

AUC of viability dose-response curve
Conditions	NOMO1 [5]	P12-Ichikawa [4]	SEM cells [6]
HPLM + 10% dialyzed FBS	304	367	465
RPMI 5 mM glucose + 10% FBS	280	372	451
RPMI 5 mM glucose + 10% dialyzed FBS	316	380	469

O=c1oc2c(O)c(O)cc3c(=O)oc4c(O)c(O)cc1c4c23
AUC of viability dose-response curve
Conditions	NOMO1 [5]	P12-Ichikawa [4]	SEM cells [6]
HPLM + 10% dialyzed FBS	455	444	471
RPMI 5 mM glucose + 10% FBS	454	452	467
RPMI 5 mM glucose + 10% dialyzed FBS	466	458	451

COc1ccc2c(c1OC)C(=O)O[C@H]2[C@H]1c2c(cc3c(c2OC)OCO3)CCN1C
AUC of viability dose-response curve
Conditions	NOMO1 [5]	P12-Ichikawa [4]	SEM cells [6]
HPLM + 10% dialyzed FBS	246	284	263
RPMI 5 mM glucose + 10% FBS	273	277	233
RPMI 5 mM glucose + 10% dialyzed FBS	277	294	247

C[C@@H]1C[C@H]2[C@@H]3\C=C(C)/C4=C/C5=C(C[C@]4(C)[C@H]3[C@@H](O)C[C@]2(C)[C@@]1(O)C(=O)CO)C=N[N]5C6=CC=CC=C6
SEM cells [3], HPLM + 10% dialyzed FBS
Conditions	cell viability [%]
0.000781 µM	143
0.00234 µM	123
0.00702 µM	112
0.0211 µM	109
0.0632 µM	101
0.19 µM	71.2
0.569 µM	66.9
1.71 µM	64.9
5.12 µM	72.3
15.4 µM	57.7
46.1 µM	36.4

AUC of viability dose-response curve
Conditions	NOMO1 [5]	P12-Ichikawa [4]	SEM cells [6]
HPLM + 10% dialyzed FBS	425	308	296
RPMI 5 mM glucose + 10% FBS	446	280	300
RPMI 5 mM glucose + 10% dialyzed FBS	461	246	267

CN(Cc1cc(Br)cc(Br)c1N)C1CCCCC1
SEM cells [3], HPLM + 10% dialyzed FBS
Conditions	cell viability [%]
0.000781 µM	99.1
0.00234 µM	122
0.00702 µM	123
0.0211 µM	130
0.0632 µM	104
0.19 µM	133
0.569 µM	104
1.71 µM	133
5.12 µM	121
15.4 µM	130
46.1 µM	108

AUC of viability dose-response curve
Conditions	NOMO1 [5]	P12-Ichikawa [4]	SEM cells [6]
HPLM + 10% dialyzed FBS	444	468	472
RPMI 5 mM glucose + 10% FBS	464	471	461
RPMI 5 mM glucose + 10% dialyzed FBS	448	470	441

NC(=O)c1ccc2[nH]c(-c3ccc(Oc4ccc(Cl)cc4)cc3)nc2c1
SEM cells [3], HPLM + 10% dialyzed FBS
Conditions	cell viability [%]
0.000781 µM	115
0.00234 µM	113
0.00702 µM	136
0.0211 µM	121
0.0632 µM	117
0.19 µM	65.4
0.569 µM	133
1.71 µM	124
5.12 µM	134
15.4 µM	118
46.1 µM	91.9

AUC of viability dose-response curve
Conditions	NOMO1 [5]	P12-Ichikawa [4]	SEM cells [6]
HPLM + 10% dialyzed FBS	457	463	470
RPMI 5 mM glucose + 10% FBS	472	454	446
RPMI 5 mM glucose + 10% dialyzed FBS	475	453	463

Nc1cccc2c1C(=O)N(C1CCC(=O)NC1=O)C2=O (stereo not given)
SEM cells [3], RPMI 5 mM glucose + 10% FBS
Conditions	cell viability [%]
0.000781 µM	117
0.00234 µM	126
0.00702 µM	103
0.0211 µM	98
0.0632 µM	96.9
0.19 µM	93.9
0.569 µM	76.6
1.71 µM	72.5
5.12 µM	80.2
15.4 µM	64.1
46.1 µM	37.7

AUC of viability dose-response curve
Conditions	NOMO1 [5]	P12-Ichikawa [4]	SEM cells [6]
HPLM + 10% dialyzed FBS	462	436	462
RPMI 5 mM glucose + 10% FBS	452	448	349
RPMI 5 mM glucose + 10% dialyzed FBS	466	450	388

CN(C)c1cc(NC(=O)CNC(C)(C)C)c(O)c2c1C[C@H]1C[C@H]3[C@H](N(C)C)C(O)=C(C(N)=O)C(=O)[C@@]3(O)C(O)=C1C2=O
AUC of viability dose-response curve
Conditions	NOMO1 [5]	P12-Ichikawa [4]	SEM cells [6]
HPLM + 10% dialyzed FBS	466	457	452
RPMI 5 mM glucose + 10% FBS	471	470	453
RPMI 5 mM glucose + 10% dialyzed FBS	457	454	436

Reference: the supplement of paper PMC11451515
